Assay results published in ChEMBL document CHEMBL1201862, “PubChem BioAssay data set” (2004).
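Tested at 5 concentrations; 48 h exposure; 96-well plates; endpoints linearly interpolated, else capped at highest concentration. GI50 is the concentration that inhibits growth by half.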 Calls of active or inactive are those of the source. Cut-off read from the data, not from the text of the source: active = GI50 up to about 1.1 µM and inactive = higher.

Assays:
Test in all cases: NCI-60 cell line screen, 48 h
MDA-N = system: MDA-N
NCI-H522 = system: NCI-H522
SR = system: SR
SNB-19 = system: SNB-19
MDA-MB-231 = system: MDA-MB-231
Hs-578T = system: Hs-578T
HOP-92 = system: HOP-92
LOX IMVI = system: LOX IMVI
CAKI-1 = system: CAKI-1
HL-60 = system: HL-60
CCRF-CEM = system: CCRF-CEM
OVCAR-3 = system: OVCAR-3
HCT-15 = system: HCT-15
KM12 = system: KM12
U-251 = system: U-251
K562 = system: K562
BT-549 = system: BT-549
UACC-257 = system: UACC-257
SW-620 = system: SW-620
NCI-H23 = system: NCI-H23
EKVX = system: EKVX
COLO 205 = system: COLO 205
M14 = system: M14
T47D = system: T47D
SF-295 = system: SF-295
OVCAR-4 = system: OVCAR-4
SNB-75 = system: SNB-75
SK-MEL-2 = system: SK-MEL-2
MCF7 = system: MCF7
A498 = system: A498
SF-539 = system: SF-539
DU-145 = system: DU-145
NCI/ADR-RES = system: NCI/ADR-RES
UO-31 = system: UO-31
OVCAR-5 = system: OVCAR-5
SN12C = system: SN12C
SF-268 = system: SF-268
SK-MEL-5 = system: SK-MEL-5
IGROV-1 = system: IGROV-1
SK-OV-3 = system: SK-OV-3
SK-MEL-28 = system: SK-MEL-28
A549 = system: A549
ACHN = system: ACHN
786-0 = system: 786-0
HOP-62 = system: HOP-62
RPMI-8226 = system: RPMI-8226
HCT-116 = system: HCT-116
TK-10 = system: TK-10
HCC 2998 = system: HCC 2998
NCI-H460 = system: NCI-H460
PC-3 = system: PC-3
MDA-MB-435 = system: MDA-MB-435
RXF 393 = system: RXF 393
Malme-3M = system: Malme-3M
UACC-62 = system: UACC-62
HT-29 = system: HT-29
OVCAR-8 = system: OVCAR-8
MOLT-4 = system: MOLT-4
NCI-H226 = system: NCI-H226

## CCCCCCCC1c2cc3nc(cc4[nH]c(cc5nc(cc([nH]2)[C@@]1(C)CC(=O)N(C)C)C(C)=C5CCC(=O)O)c(CCC(=O)O)c4C)C=C3C (some centres not stated)
MDA-N
  GI50: 31 µM (inactive)
NCI-H522
  GI50: 18.4 µM (inactive)
SR
  GI50: 19900 nM (inactive)
SNB-19
  GI50: 20.6 µM (inactive)
MDA-MB-231
  GI50: 17 µM (inactive)
Hs-578T
  GI50: 18.7 µM (inactive)
HOP-92
  GI50: 21.2 µM (inactive)
LOX IMVI
  GI50: 17.6 µM (inactive)
CAKI-1
  GI50: 39 µM (inactive)
HL-60
  GI50: 23700 nM (inactive)
CCRF-CEM
  GI50: 18.8 µM (inactive)
OVCAR-3
  GI50: 17.5 µM (inactive)
HCT-15
  GI50: 20300 nM
KM12
  GI50: 24.9 µM (inactive)
U-251
  GI50: 18.9 µM (inactive)
K562
  GI50: 21800 nM (inactive)
BT-549
  GI50: 14.9 µM (inactive)
UACC-257
  GI50: 17.3 µM (inactive)
SW-620
  GI50: 42.8 µM (inactive)
NCI-H23
  GI50: 18.5 µM (inactive)
EKVX
  GI50: 55.8 µM (inactive)
COLO 205
  GI50: 16.7 µM (inactive)
M14
  GI50: 14.7 µM (inactive)
T47D
  GI50: 34.9 µM (inactive)
SF-295
  GI50: 18.9 µM (inactive)
OVCAR-4
  GI50: 32.8 µM (inactive)
SNB-75
  GI50: 18.7 µM (inactive)
SK-MEL-2
  GI50: 18.8 µM (inactive)
MCF7
  GI50: 32.1 µM (inactive)
A498
  GI50: 33.3 µM (inactive)
SF-539
  GI50: 18.9 µM (inactive)
DU-145
  GI50: 21.4 µM (inactive)
NCI/ADR-RES
  GI50: 20.4 µM (inactive)
UO-31
  GI50: 18.2 µM (inactive)
OVCAR-5
  GI50: 25.5 µM (inactive)
SN12C
  GI50: 30.4 µM (inactive)
SF-268
  GI50: 20.8 µM (inactive)
SK-MEL-5
  GI50: 29.7 µM (inactive)
IGROV-1
  GI50: 21 µM (inactive)
SK-OV-3
  GI50: 40.6 µM (inactive)
SK-MEL-28
  GI50: 19.1 µM (inactive)
A549
  GI50: 50.2 µM (inactive)
ACHN
  GI50: 18.5 µM (inactive)
786-0
  GI50: 29.5 µM (inactive)
HOP-62
  GI50: 20.5 µM (inactive)
RPMI-8226
  GI50: 17.7 µM (inactive)
HCT-116
  GI50: 17.1 µM (inactive)
TK-10
  GI50: 37.2 µM (inactive)
HCC 2998
  GI50: 20 µM (inactive)
NCI-H460
  GI50: 20.8 µM (inactive)
PC-3
  GI50: 23.8 µM (inactive)
MDA-MB-435
  GI50: 30.2 µM (inactive)
RXF 393
  GI50: 17.8 µM (inactive)
Malme-3M
  GI50: 19.9 µM (inactive)
UACC-62
  GI50: 18.5 µM (inactive)
HT-29
  GI50: 18.6 µM (inactive)

## CN(CCCNC(=O)c1nn(-c2ccccc2)c2c1Cc1ccccc1-2)CCCNC(=O)c1nn(-c2ccccc2)c2c1Cc1ccccc1-2
MDA-N
  GI50: 1.5 µM (inactive)
NCI-H522
  GI50: 1.35 µM (inactive)
SR
  GI50: 191 nM (active)
OVCAR-8
  GI50: 1.73 µM (inactive)
SNB-19
  GI50: 1.61 µM (inactive)
MDA-MB-231
  GI50: 1.76 µM (inactive)
Hs-578T
  GI50: 1.25 µM (inactive)
HOP-92
  GI50: 1.57 µM (inactive)
LOX IMVI
  GI50: 1.51 µM (inactive)
CAKI-1
  GI50: 1.38 µM (inactive)
HL-60
  GI50: 603 nM (active)
CCRF-CEM
  GI50: 1 µM (active)
OVCAR-3
  GI50: 1.71 µM (inactive)
HCT-15
  GI50: 1640 nM
KM12
  GI50: 1.9 µM (inactive)
U-251
  GI50: 1.7 µM (inactive)
K562
  GI50: 550 nM (active)
BT-549
  GI50: 1.56 µM (inactive)
UACC-257
  GI50: 1.72 µM (inactive)
SW-620
  GI50: 1.31 µM (inactive)
NCI-H23
  GI50: 1.57 µM (inactive)
EKVX
  GI50: 1.83 µM (inactive)
COLO 205
  GI50: 1.45 µM (inactive)
M14
  GI50: 1.05 µM (active)
T47D
  GI50: 1.92 µM (inactive)
SF-295
  GI50: 1.84 µM (inactive)
OVCAR-4
  GI50: 0.929 µM (active)
SNB-75
  GI50: 1.36 µM (inactive)
SK-MEL-2
  GI50: 1.69 µM (inactive)
MCF7
  GI50: 1.63 µM (inactive)
A498
  GI50: 1.69 µM (inactive)
SF-539
  GI50: 1.59 µM (inactive)
DU-145
  GI50: 1.7 µM (inactive)
NCI/ADR-RES
  GI50: 1.63 µM (inactive)
UO-31
  GI50: 1.61 µM (inactive)
OVCAR-5
  GI50: 1.75 µM (inactive)
SN12C
  GI50: 1.76 µM (inactive)
SF-268
  GI50: 1.63 µM (inactive)
SK-MEL-5
  GI50: 1.57 µM (inactive)
IGROV-1
  GI50: 1.51 µM (inactive)
SK-OV-3
  GI50: 1.72 µM (inactive)
MOLT-4
  GI50: 1.12 µM (active)
SK-MEL-28
  GI50: 1.59 µM (inactive)
A549
  GI50: 1.66 µM (inactive)
ACHN
  GI50: 1.73 µM (inactive)
786-0
  GI50: 1.65 µM (inactive)
HOP-62
  GI50: 1.58 µM (inactive)
RPMI-8226
  GI50: 1.72 µM (inactive)
HCT-116
  GI50: 1.65 µM (inactive)
TK-10
  GI50: 1.74 µM (inactive)
HCC 2998
  GI50: 1.42 µM (inactive)
NCI-H460
  GI50: 1.66 µM (inactive)
PC-3
  GI50: 1.69 µM (inactive)
MDA-MB-435
  GI50: 1.23 µM (inactive)
RXF 393
  GI50: 1.75 µM (inactive)
Malme-3M
  GI50: 1.5 µM (inactive)
UACC-62
  GI50: 1.77 µM (inactive)
HT-29
  GI50: 1.73 µM (inactive)

## Cc1ccc2c(O)c3c(cc2c1)C(=O)c1c2c(cc(O)c1C3=O)C1(C)OC(O2)C(O)C(N(C)C)C1O (configuration not stated)
MDA-N
  GI50: 1.63 µM (inactive)
NCI-H522
  GI50: 1.22 µM (inactive)
SR
  GI50: 45.2 nM (active)
OVCAR-8
  GI50: 1.19 µM (inactive)
SNB-19
  GI50: 1.17 µM (inactive)
MDA-MB-231
  GI50: 1.33 µM (inactive)
Hs-578T
  GI50: 1.02 µM (active)
HOP-92
  GI50: 1.01 µM (active)
LOX IMVI
  GI50: 1.11 µM (active)
CAKI-1
  GI50: 0.794 µM (active)
HL-60
  GI50: 155 nM (active)
CCRF-CEM
  GI50: 0.154 µM (active)
OVCAR-3
  GI50: 0.794 µM (active)
HCT-15
  GI50: 614 nM
KM12
  GI50: 0.59 µM (active)
U-251
  GI50: 1.16 µM (inactive)
K562
  GI50: 167 nM (active)
BT-549
  GI50: 1.49 µM (inactive)
UACC-257
  GI50: 1.51 µM (inactive)
SW-620
  GI50: 1.02 µM (active)
NCI-H23
  GI50: 1.26 µM (inactive)
EKVX
  GI50: 1.32 µM (inactive)
COLO 205
  GI50: 0.91 µM (active)
M14
  GI50: 1.56 µM (inactive)
T47D
  GI50: 0.656 µM (active)
SF-295
  GI50: 1.09 µM (active)
OVCAR-4
  GI50: 1.56 µM (inactive)
SNB-75
  GI50: 1.04 µM (active)
SK-MEL-2
  GI50: 1.85 µM (inactive)
MCF7
  GI50: 0.287 µM (active)
A498
  GI50: 1.28 µM (inactive)
SF-539
  GI50: 1.11 µM (active)
DU-145
  GI50: 0.767 µM (active)
NCI/ADR-RES
  GI50: 1.4 µM (inactive)
UO-31
  GI50: 1.27 µM (inactive)
OVCAR-5
  GI50: 1.97 µM (inactive)
SN12C
  GI50: 1.37 µM (inactive)
SF-268
  GI50: 3.65 µM (inactive)
SK-MEL-5
  GI50: 1.22 µM (inactive)
IGROV-1
  GI50: 0.912 µM (active)
SK-OV-3
  GI50: 1.09 µM (active)
MOLT-4
  GI50: 0.124 µM (active)
SK-MEL-28
  GI50: 1.32 µM (inactive)
A549
  GI50: 0.719 µM (active)
ACHN
  GI50: 0.605 µM (active)
786-0
  GI50: 0.617 µM (active)
HOP-62
  GI50: 1.01 µM (active)
RPMI-8226
  GI50: 0.29 µM (active)
HCT-116
  GI50: 0.296 µM (active)
TK-10
  GI50: 1.69 µM (inactive)
HCC 2998
  GI50: 1.19 µM (inactive)
NCI-H460
  GI50: 0.109 µM (active)
PC-3
  GI50: 1.05 µM (active)
MDA-MB-435
  GI50: 1.39 µM (inactive)
RXF 393
  GI50: 1.21 µM (inactive)
NCI-H226
  GI50: 1.15 µM (inactive)
UACC-62
  GI50: 1.07 µM (active)
HT-29
  GI50: 0.495 µM (active)
